Experimental data reported in the supplement of paper PMC10307832.

Tests used:
Assay in all cases: relative viability (nuclei count vs DMSO), 5 days (fraction); higher = more cells survive
[1] = compound: CC1=C(C(=NN1)C)CC2=C(C3=C(S2)N(C(=O)N(C3=O)C)CC(C)C)C(=O)N4C[C@@H](CO4)O + Cc1cc(Nc2cc(N3CCN(C)CC3)nc(Sc3ccc(NC(=O)C4CC4)cc3)n2)n[nH]1 [Tozasertib] (partner 0.1 µM)
Outline: (§1)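 Each reported value is a median over duplicate plates. It expresses relative viability: treated-well nuclei count divided by vehicle-well nuclei count. Lung cancer cell lines in 1536-well plates were dosed by pin tool a day after seeding, alone with one drug or with a fixed anchor-drug dose plus five library-drug doses (not always all listed) in √10 steps, and nuclei were counted after 5 days.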

IDH-C35 + Alpelisib = compound: Cc1ccccc1C(C(=O)NC1CCCCC1)N(C(=O)Cn1ccnc1C)c1cccc(F)c1 [IDH-C35] + Cc1nc(NC(=O)N2CCC[C@H]2C(N)=O)sc1-c1ccnc(C(C)(C)C(F)(F)F)c1 [Alpelisib] (partner 2 µM)
Outline: as §1

[2] = compound: CC1=C(C(=NN1)C)CC2=C(C3=C(S2)N(C(=O)N(C3=O)C)CC(C)C)C(=O)N4C[C@@H](CO4)O + NC(=O)Nc1cc(-c2cccc(F)c2)sc1C(=O)N[C@H]1CCCNC1 [AZD7762] (partner 0.2 µM)
Outline: as §1

[3] = compound: CC1=C(C(=NN1)C)CC2=C(C3=C(S2)N(C(=O)N(C3=O)C)CC(C)C)C(=O)N4C[C@@H](CO4)O + COc1cccc2cc(-c3nc([C@H]4CC[C@H](C(=O)O)CC4)n4ncnc(N)c34)[nH]c12 [OSI-027] (partner 0.5 µM)
Outline: as §1

HCC-15 was tested, and the relative viability ([1]; first compound 0.0025 µM) was 0.458, the relative viability ([1]; first compound 0.007906 µM) was 0.519 and the relative viability ([1]; first compound 0.025 µM) was 0.435. For the same cell line, the relative viability ([1]; first compound 0.07906 µM) was 0.469, the relative viability ([1]; first compound 0.25 µM) was 0.448 and the relative viability (IDH-C35 + Alpelisib; first compound 0.08 µM) was 0.904. The relative viability (IDH-C35 + Alpelisib; first compound 0.253 µM) was 0.844, the relative viability (IDH-C35 + Alpelisib; first compound 0.8 µM) was 0.822 and the relative viability (IDH-C35 + Alpelisib; first compound 2.53 µM) was 0.854. It also gave a relative viability (IDH-C35 + Alpelisib; first compound 8 µM) of 0.852, a relative viability ([2]; first compound 0.0025 µM) of 1.34 and a relative viability ([2]; first compound 0.007906 µM) of 1.37. The relative viability ([2]; first compound 0.025 µM) was 1.13, the relative viability ([2]; first compound 0.07906 µM) was 1.17 and the relative viability ([2]; first compound 0.25 µM) was 1.29. For the same cell line, the relative viability ([3]; first compound 0.0025 µM) was 0.707, the relative viability ([3]; first compound 0.007906 µM) was 0.705 and the relative viability ([3]; first compound 0.025 µM) was 0.691. The relative viability ([3]; first compound 0.07906 µM) was 0.737 and the relative viability ([3]; first compound 0.25 µM) was 0.784.

HCC-44 was tested, and the relative viability ([1]; first compound 0.0025 µM) was 0.888, the relative viability ([1]; first compound 0.007906 µM) was 0.746 and the relative viability ([1]; first compound 0.025 µM) was 0.915. For the same cell line, the relative viability ([1]; first compound 0.07906 µM) was 0.882, the relative viability ([1]; first compound 0.25 µM) was 1.13 and the relative viability (IDH-C35 + Alpelisib; first compound 0.08 µM) was 0.821. It also gave a relative viability (IDH-C35 + Alpelisib; first compound 0.253 µM) of 0.764, a relative viability (IDH-C35 + Alpelisib; first compound 0.8 µM) of 0.737 and a relative viability (IDH-C35 + Alpelisib; first compound 2.53 µM) of 0.827. It also gave a relative viability (IDH-C35 + Alpelisib; first compound 8 µM) of 0.763, a relative viability ([2]; first compound 0.0025 µM) of 1 and a relative viability ([2]; first compound 0.007906 µM) of 0.984. It also gave a relative viability ([2]; first compound 0.025 µM) of 0.98, a relative viability ([2]; first compound 0.07906 µM) of 1.06 and a relative viability ([2]; first compound 0.25 µM) of 1.07. It also gave a relative viability ([3]; first compound 0.0025 µM) of 0.676, a relative viability ([3]; first compound 0.007906 µM) of 0.376 and a relative viability ([3]; first compound 0.025 µM) of 0.413. For the same cell line, the relative viability ([3]; first compound 0.07906 µM) was 0.516 and the relative viability ([3]; first compound 0.25 µM) was 0.747.

HCC-78 gave a relative viability ([1]; first compound 0.0025 µM) of 0.415, a relative viability ([1]; first compound 0.007906 µM) of 0.406 and a relative viability ([1]; first compound 0.025 µM) of 0.544. It also gave a relative viability ([1]; first compound 0.07906 µM) of 0.453, a relative viability ([1]; first compound 0.25 µM) of 0.284 and a relative viability (IDH-C35 + Alpelisib; first compound 0.08 µM) of 0.361. The relative viability (IDH-C35 + Alpelisib; first compound 0.253 µM) was 0.323, the relative viability (IDH-C35 + Alpelisib; first compound 0.8 µM) was 0.322 and the relative viability (IDH-C35 + Alpelisib; first compound 2.53 µM) was 0.397. It also gave a relative viability (IDH-C35 + Alpelisib; first compound 8 µM) of 0.331, a relative viability ([2]; first compound 0.0025 µM) of 0.538 and a relative viability ([2]; first compound 0.007906 µM) of 0.588. It also gave a relative viability ([2]; first compound 0.025 µM) of 0.555, a relative viability ([2]; first compound 0.07906 µM) of 0.529 and a relative viability ([2]; first compound 0.25 µM) of 0.673. For the same cell line, the relative viability ([3]; first compound 0.0025 µM) was 0.388, the relative viability ([3]; first compound 0.007906 µM) was 0.38 and the relative viability ([3]; first compound 0.025 µM) was 0.343. It also gave a relative viability ([3]; first compound 0.07906 µM) of 0.357 and a relative viability ([3]; first compound 0.25 µM) of 0.374.

Work on NCI-H727 yielded a relative viability ([1]; first compound 0.0025 µM) of 0.676, a relative viability ([1]; first compound 0.007906 µM) of 0.788 and a relative viability ([1]; first compound 0.025 µM) of 0.696. For the same cell line, the relative viability ([1]; first compound 0.07906 µM) was 0.513, the relative viability ([1]; first compound 0.25 µM) was 0.513 and the relative viability (IDH-C35 + Alpelisib; first compound 0.08 µM) was 0.536. The relative viability (IDH-C35 + Alpelisib; first compound 0.253 µM) was 0.719, the relative viability (IDH-C35 + Alpelisib; first compound 0.8 µM) was 0.543 and the relative viability (IDH-C35 + Alpelisib; first compound 2.53 µM) was 0.582. For the same cell line, the relative viability (IDH-C35 + Alpelisib; first compound 8 µM) was 0.83, the relative viability ([2]; first compound 0.0025 µM) was 0.6 and the relative viability ([2]; first compound 0.007906 µM) was 0.842. For the same cell line, the relative viability ([2]; first compound 0.025 µM) was 0.575, the relative viability ([2]; first compound 0.07906 µM) was 0.623 and the relative viability ([2]; first compound 0.25 µM) was 0.652. For the same cell line, the relative viability ([3]; first compound 0.0025 µM) was 0.731, the relative viability ([3]; first compound 0.007906 µM) was 0.504 and the relative viability ([3]; first compound 0.025 µM) was 0.505. It also gave a relative viability ([3]; first compound 0.07906 µM) of 0.586 and a relative viability ([3]; first compound 0.25 µM) of 0.708.

NCI-H2087 gave a relative viability ([1]; first compound 0.0025 µM) of 0.275, a relative viability ([1]; first compound 0.007906 µM) of 0.233 and a relative viability ([1]; first compound 0.025 µM) of 0.281. It also gave a relative viability ([1]; first compound 0.07906 µM) of 0.219, a relative viability ([1]; first compound 0.25 µM) of 0.33 and a relative viability (IDH-C35 + Alpelisib; first compound 0.08 µM) of 1.11. The relative viability (IDH-C35 + Alpelisib; first compound 0.253 µM) was 1.13, the relative viability (IDH-C35 + Alpelisib; first compound 0.8 µM) was 1.05 and the relative viability (IDH-C35 + Alpelisib; first compound 2.53 µM) was 1.09. It also gave a relative viability (IDH-C35 + Alpelisib; first compound 8 µM) of 0.874, a relative viability ([2]; first compound 0.0025 µM) of 1.43 and a relative viability ([2]; first compound 0.007906 µM) of 1.37. It also gave a relative viability ([2]; first compound 0.025 µM) of 1.15, a relative viability ([2]; first compound 0.07906 µM) of 1.13 and a relative viability ([2]; first compound 0.25 µM) of 1.3. The relative viability ([3]; first compound 0.0025 µM) was 0.72, the relative viability ([3]; first compound 0.007906 µM) was 0.506 and the relative viability ([3]; first compound 0.025 µM) was 0.517. The relative viability ([3]; first compound 0.07906 µM) was 0.564 and the relative viability ([3]; first compound 0.25 µM) was 0.54.

BEN gave a relative viability ([1]; first compound 0.0025 µM) of 0.495, a relative viability ([1]; first compound 0.007906 µM) of 0.563 and a relative viability ([1]; first compound 0.025 µM) of 0.586. The relative viability ([1]; first compound 0.07906 µM) was 0.457, the relative viability ([1]; first compound 0.25 µM) was 0.52 and the relative viability (IDH-C35 + Alpelisib; first compound 0.08 µM) was 0.988. For the same cell line, the relative viability (IDH-C35 + Alpelisib; first compound 0.253 µM) was 0.927, the relative viability (IDH-C35 + Alpelisib; first compound 0.8 µM) was 0.885 and the relative viability (IDH-C35 + Alpelisib; first compound 2.53 µM) was 0.975. For the same cell line, the relative viability (IDH-C35 + Alpelisib; first compound 8 µM) was 0.942, the relative viability ([2]; first compound 0.0025 µM) was 0.637 and the relative viability ([2]; first compound 0.007906 µM) was 0.631. It also gave a relative viability ([2]; first compound 0.025 µM) of 0.599, a relative viability ([2]; first compound 0.07906 µM) of 0.51 and a relative viability ([2]; first compound 0.25 µM) of 0.646. For the same cell line, the relative viability ([3]; first compound 0.0025 µM) was 0.31, the relative viability ([3]; first compound 0.007906 µM) was 0.293 and the relative viability ([3]; first compound 0.025 µM) was 0.357. For the same cell line, the relative viability ([3]; first compound 0.07906 µM) was 0.317 and the relative viability ([3]; first compound 0.25 µM) was 0.292.

LCLC-103H was tested, and the relative viability ([1]; first compound 0.0025 µM) was 0.544, the relative viability ([1]; first compound 0.007906 µM) was 0.564 and the relative viability ([1]; first compound 0.025 µM) was 0.505. It also gave a relative viability ([1]; first compound 0.07906 µM) of 0.551, a relative viability ([1]; first compound 0.25 µM) of 0.543 and a relative viability (IDH-C35 + Alpelisib; first compound 0.08 µM) of 1.05. For the same cell line, the relative viability (IDH-C35 + Alpelisib; first compound 0.253 µM) was 0.979, the relative viability (IDH-C35 + Alpelisib; first compound 0.8 µM) was 0.918 and the relative viability (IDH-C35 + Alpelisib; first compound 2.53 µM) was 0.963. It also gave a relative viability (IDH-C35 + Alpelisib; first compound 8 µM) of 1.09, a relative viability ([2]; first compound 0.0025 µM) of 0.793 and a relative viability ([2]; first compound 0.007906 µM) of 0.914. It also gave a relative viability ([2]; first compound 0.025 µM) of 0.768, a relative viability ([2]; first compound 0.07906 µM) of 0.807 and a relative viability ([2]; first compound 0.25 µM) of 0.749. The relative viability ([3]; first compound 0.0025 µM) was 0.529, the relative viability ([3]; first compound 0.007906 µM) was 0.466 and the relative viability ([3]; first compound 0.025 µM) was 0.467. It also gave a relative viability ([3]; first compound 0.07906 µM) of 0.496 and a relative viability ([3]; first compound 0.25 µM) of 0.512.

EKVX showed a relative viability ([1]; first compound 0.0025 µM) of 0.398, a relative viability ([1]; first compound 0.007906 µM) of 0.404 and a relative viability ([1]; first compound 0.025 µM) of 0.432. It also gave a relative viability ([1]; first compound 0.07906 µM) of 0.394, a relative viability ([1]; first compound 0.25 µM) of 0.422 and a relative viability (IDH-C35 + Alpelisib; first compound 0.08 µM) of 0.868. The relative viability (IDH-C35 + Alpelisib; first compound 0.253 µM) was 0.858, the relative viability (IDH-C35 + Alpelisib; first compound 0.8 µM) was 0.852 and the relative viability (IDH-C35 + Alpelisib; first compound 2.53 µM) was 0.819. The relative viability (IDH-C35 + Alpelisib; first compound 8 µM) was 0.831, the relative viability ([2]; first compound 0.0025 µM) was 0.803 and the relative viability ([2]; first compound 0.007906 µM) was 0.721. The relative viability ([2]; first compound 0.025 µM) was 0.761, the relative viability ([2]; first compound 0.07906 µM) was 0.517 and the relative viability ([2]; first compound 0.25 µM) was 0.725. It also gave a relative viability ([3]; first compound 0.0025 µM) of 0.677, a relative viability ([3]; first compound 0.007906 µM) of 0.712 and a relative viability ([3]; first compound 0.025 µM) of 0.666. The relative viability ([3]; first compound 0.07906 µM) was 0.716 and the relative viability ([3]; first compound 0.25 µM) was 0.592.
